Laboratory results taken from publication PMC10135033, “Sulfonamidoboronic Acids as “Cross-Class” Inhibitors of an Expanded-Spectrum Class C Cephalosporinase, ADC-33, and a Class D Carbapenemase, OXA-24/40: Strategic Compound Design to Combat Resistance in Acinetobacter baumannii” (Antibiotics, 2023).
Like-named read-outs stand apart in the source and are kept apart here.

Key:
[1] = molecular target: T1, OXA-24/40 (Acinetobacter baumannii, UniProt Q8RLA6); test: Ki determination, competition assay with nitrocefin (NCF) as substrate; assay type: biochemical
T1 construct: made in house
T1 sequence (Q8RLA6 22-275): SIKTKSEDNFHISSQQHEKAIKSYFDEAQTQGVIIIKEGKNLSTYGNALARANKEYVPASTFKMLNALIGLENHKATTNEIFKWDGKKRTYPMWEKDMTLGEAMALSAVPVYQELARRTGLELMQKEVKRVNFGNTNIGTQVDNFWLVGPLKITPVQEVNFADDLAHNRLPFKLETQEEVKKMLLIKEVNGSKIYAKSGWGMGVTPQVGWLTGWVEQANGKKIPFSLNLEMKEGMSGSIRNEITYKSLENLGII
Description: The affinity of CR167 for the two different β-lactamases was measured in competition assays using nitrocefin (NCF) as the indicator substrate (Table 1).
The binding affinity of each of the compounds 6a–e with ADC-33 and with OXA-24/40 was determined after 5 min pre-incubation of boronic acid and the enzyme, using competition assays with nitrocefin (NCF) as the substrate. […] These compounds differ in three structural characteristics: stereochemistry, the presence of the m-carboxylate on the aromatic ring, and the small chain linked to the chiral center. […] Finally, the smaller the steric hindrance is at the R1 position, the higher the affinity is.
Ki values were determined by using nitrocefin as a reporter substrate and treating the compounds as competitive inhibitors. Steady-state kinetic parameters were determined by combining pure enzyme with nitrocefin in 50 mM NaH2PO4; 25 mM NaHCO3, pH 7.4 (for OXA-24/40); or 50 mM NaH2PO4, pH 7.4 (for ADC-33), at room temperature. Changes in absorbance were measured on a Cary 60 UV−Vis spectrophotometer (Agilent Technologies) and converted to velocity using the change-in-extinction coefficient specific to nitrocefin (ε = 17,400 M^−1·cm^−1 at 482 nm). Initial velocities were fit to the Michaelis–Menten equation, yielding kcat and Km values. Next, the enzyme was challenged with a constant concentration of nitrocefin and increasing amounts of inhibitor. IC50 values were used to calculate Ki values using the Cheng–Prusoff equation as previously described. Specifically, the measurements of the initial velocities were performed with the addition of 100 µM NCF after a 5 min pre-incubation of the enzyme (2 nM) with increasing concentration of the inhibitor [37]. To determine the average velocities (v0), data from three experiments were fit to Equation (1): (1) v0=vu −{vu[I]/IC 50+[I]} where vu represents the NCF uninhibited velocity and IC50 represents the inhibitor concentration that results in a 50% reduction in vu. The Ki value was corrected for the NCF affinity (Km values for both OXA-24/40 and ADC-33) with the Cheng–Prusoff equation (Equation (2)): (2) Ki=IC50/(1+[NCF]/KmNCF)

[2] = system: A. baumannii ATCC 17978 native ADC KO, ADC-33 pQF1266; test: Antimicrobial susceptibility testing, broth microdilution; assay type: cell-based; conditions: Acinetobacter baumannii
Description: (§1) The inhibitory effects of both compounds were tested against ADC-33 and OXA-24/-40 in A. baumannii, their native host. ATCC 17978, with its intrinsic chromosomal ADC knocked out (intrinsic OXA still present), was used in these experiments. In this isolate, the ADC MICs were not lowered by the inhibitors as much as they were against the E. coli background (Table 4).
Plasmid pBCSK- containing the blaADC-33 gene was digested with PvuII, which released the blaADC-33 gene, along with the lac promoter, which drives expression. This PvuII fragment was cloned into the SmaI site of the pQF1266 plasmid.
(§2) pWH1266 is a vector that replicates in A. baumannii, and the […] pWH1266 construct was generated as follows. The TEM gene was removed using inverse PCR, and an Xba1 site was engineered into the vector. blaOXA-24/40 and its upstream XerC/XerD were amplified from strain NM55. The amplified gene was cloned into the Xba1 site of the altered pWH1266 vector. The construct was confirmed using PCR and sequencing. Both blaADC-33 pQF1266 and […] pWH1266 were then expressed in A. baumannii ATCC 17978 that had the intrinsic chromosomal ADC gene knocked out.
(§3) The chromosomal blaADC-51 gene in ATCC 17978 was deleted and replaced with an apramycin resistance cassette using the recombineering method described by Tucker et al.. Primers used for this deletion were: Del AmpC-apra.For: […]; and Del AmpC-apra.Rev: […]. The correct deletion mutant was confirmed using PCR and sequencing.
(§4) Testing of susceptibility to standard antibiotics was performed with broth microdilution according to CLSI guidelines. MICs for CAZ, CTX, FEP, and IMI were determined using cation-adjusted Mueller–Hinton broth according to CLSI methods, and CR167 or 6b was used at a fixed concentration of 10 mg/L. All MICs were interpreted according to the 2022 Clinical and Laboratory Standards Institute (CLSI) guidelines.

[3] = system: A. baumannii ATCC 17978 native ADC KO, OXA-24 pWH1266; test: as above; assay type: cell-based; conditions: Acinetobacter baumannii
Description: as §1, §2, §3, §4

[4] = system: clinical A. baumannii isolate PR323 (OXA-24, OXA-65, ADC-218); test: Antimicrobial susceptibility testing, clinical isolate, broth microdilution; assay type: cell-based; conditions: Acinetobacter baumannii
Description: (§5) Clinical A. baumannii isolates containing ADC-33 or OXA-24/-40 in combination with various other well-defined β-lactamases were also tested against CR167 and 6b (Table 5).
(§6) The clinical A. baumannii isolates used to test the β-lactamase inhibitors were selected from a previously well-characterized collection in our lab. They were chosen as they had either ADC-33 and/or OXA-24 in combination with other known β-lactamases (for specific combinations, see Table 5).
as §4

[5] = system: clinical A. baumannii isolate PR328 (OXA-23, OXA-82, ADC-33); test: as above; assay type: cell-based; conditions: Acinetobacter baumannii
Description: as §5, §6, §4

[6] = system: clinical A. baumannii isolate PR378 (OXA-24, OXA-65, TEM-1); test: as above; assay type: cell-based; conditions: Acinetobacter baumannii
Description: as §5, §6, §4

[7] = system: clinical A. baumannii isolate PR396 (OXA-82, ADC-33); test: as above; assay type: cell-based; conditions: Acinetobacter baumannii, inhibitor at 10 mg/L
Description: as §5, §6, §4

[8] = system: clinical A. baumannii isolate PR408 (OXA-24, OXA-71, ADC-212); test: as above; assay type: cell-based; conditions: Acinetobacter baumannii
Description: as §5, §6, §4

[9] = system: clinical A. baumannii isolate PR462 (OXA-24, OXA-65, ADC-214); test: as above; assay type: cell-based; conditions: Acinetobacter baumannii, inhibitor at 10 mg/L
Description: as §5, §6, §4

[10] = system: clinical A. baumannii isolate PR474 (OXA-23, OXA-24, OXA-65, ADC-218); test: as above; assay type: cell-based; conditions: Acinetobacter baumannii
Description: as §5, §6, §4

[11] = ATCC17978, read-out: MIC of CAZ with BLI
[12] = ATCC17978, read-out: MIC of CTX with BLI
[13] = ATCC17978, read-out: MIC of FEP with BLI
[14] = ATCC17978, read-out: MIC of IMI with BLI
[15] = inhibitor at 10 mg/L, PR323, read-out: MIC of CAZ with BLI
[16] = inhibitor at 10 mg/L, PR323, read-out: MIC of CTX with BLI
[17] = inhibitor at 10 mg/L, PR328, read-out: MIC of CAZ with BLI
[18] = inhibitor at 10 mg/L, PR378, read-out: MIC of CAZ with BLI
[19] = inhibitor at 10 mg/L, PR378, read-out: MIC of CTX with BLI
[20] = inhibitor at 10 mg/L, PR408, read-out: MIC of CAZ with BLI
[21] = inhibitor at 10 mg/L, PR408, read-out: MIC of CTX with BLI
[22] = inhibitor at 10 mg/L, PR474, read-out: MIC of CAZ with BLI
[23] = inhibitor at 10 mg/L, PR474, read-out: MIC of CTX with BLI

SMILES | Ki [1] [µM] | MIC [2, 11] [µg/mL] | MIC [2, 12] [µg/mL] | MIC [2, 13] [µg/mL] | MIC [3, 11] [µg/mL] | MIC [3, 12] [µg/mL] | MIC [3, 13] [µg/mL] | MIC [3, 14] [µg/mL] | MIC ([4]; read-out: MIC of IMI with BLI) [µg/mL] | MIC [4, 15] [µg/mL] | MIC [4, 16] [µg/mL] | MIC ([5]; read-out: MIC of IMI with BLI) [µg/mL] | MIC [5, 17] [µg/mL] | MIC [6, 18] [µg/mL] | MIC [6, 19] [µg/mL] | MIC ([7]; read-out: MIC of CAZ with BLI) [µg/mL] | MIC ([7]; read-out: MIC of CTX with BLI) [µg/mL] | MIC ([7]; read-out: MIC of IMI with BLI) [µg/mL] | MIC ([8]; read-out: MIC of IMI with BLI) [µg/mL] | MIC [8, 20] [µg/mL] | further results
O=C(O)c1cccc(CS(=O)(=O)NCB(O)O)c1 [CR167] | 4.4 ± 0.5 | 32 | 16 | 4 | 8 | 16 | 32 | 128 | 128 | 4100 | 2050 | 128 | 1020 | 32 | 64 | 1020 | 256 | 64 | 128 | 512 | MIC ([5]; read-out: MIC of CTX with BLI): 128 µg/mL; MIC ([6]; read-out: MIC of IMI with BLI): 128 µg/mL; MIC [8, 21]: 1020 µg/mL; MIC ([9]; read-out: MIC of CAZ with BLI): 64 µg/mL; MIC ([9]; read-out: MIC of CTX with BLI): 256 µg/mL; MIC ([9]; read-out: MIC of IMI with BLI): 64 µg/mL; MIC ([10]; read-out: MIC of IMI with BLI): 128 µg/mL; MIC [10, 22]: 4100 µg/mL; MIC [10, 23]: 2050 µg/mL
C[C@@H](NS(=O)(=O)Cc1cccc(C(=O)O)c1)B(O)O [6b] | 5.2 ± 0.5 | 64 | 32 | 4 | 8 | 16 | 32 | 128 | 128 | 4100 | 2050 | 128 | 2050 | 32 | 64 | 2050 | 512 | 64 | 128 | 512 | fold higher affinity than compound 6a for OXA-24/40 ([1]; ratio of Ki, 6b vs 6a): 120 fold; fold more potent than 6d, OXA-24/40 ([1]; ratio of Ki, 6b vs 6d): 60 fold; MIC ([5]; inhibitor at 10 mg/L, PR328, read-out: MIC of CTX with BLI): 256 µg/mL; MIC ([6]; inhibitor at 10 mg/L, PR378, read-out: MIC of IMI with BLI): 256 µg/mL; MIC [8, 21]: 1020 µg/mL; MIC ([9]; read-out: MIC of CAZ with BLI): 256 µg/mL; MIC ([9]; read-out: MIC of CTX with BLI): 512 µg/mL; MIC ([9]; read-out: MIC of IMI with BLI): 64 µg/mL; MIC ([10]; read-out: MIC of IMI with BLI): 128 µg/mL; MIC [10, 22]: 4100 µg/mL; MIC [10, 23]: 2050 µg/mL
